Results published in PMC6143625, “A high throughput screen for next-generation leads targeting malaria parasite transmission” (Nature Communications, 2018).
Read-outs that look alike come from different tables or passages of the source.

How the values were obtained:
HepG2 human cells = tested on: HepG2 human cells; design: method as in http://dx.doi.org/10.6019/CHEMBL3507680; conditions: ref http://dx.doi.org/10.6019/CHEMBL3507680; cited from earlier work
[1] = tested on: P. falciparum 3D7 asexual blood stages; assay: Whole-cell time extended asexual growth assay (pLDH); type: cell-based; conditions: Plasmodium falciparum, 72 h; for IC50: dose response retest, read-out: IC50 (µM) Asex stages; for inhibition at 2 µM: primary screen, read-out: %Inh Asex stages @2uM
Protocol: Asexual activity was assayed via Plasmodium lactate dehydrogenase activity (pLDH), a surrogate of asexual parasite growth. […] 2 µM artesunate and DMSO were used as the positive and negative controls, respectively. […] After plate mixing, NBT reduction was measured by absorbance at 650 nm using Envision (Perkin Elmer).

[2] = tested on: P. falciparum stage V female gametocytes (female gamete formation); assay: P. falciparum dual gamete formation assay (Pf DGFA), female readout (Pfs25 expression), 48 h carry-over format; type: cell-based, Plasmodium falciparum NF54; conditions: for IC50 / inhibition at 2 µM: Plasmodium falciparum; for IC50: read-out: Female IC50; for inhibition at 2 µM / %Inhibition Female @2uM: primary screen, single replicate
[3] = tested on: P. falciparum stage V male gametocytes (male gamete formation); assay: P. falciparum dual gamete formation assay (Pf DGFA), male readout (exflagellation), 48 h carry-over format; type: cell-based, Plasmodium falciparum NF54; conditions: for IC50 / inhibition at 2 µM: Plasmodium falciparum; for IC50: read-out: Male IC50; for inhibition at 2 µM / %Inhibition Male @2uM: primary screen, single replicate
[4] = 48 h, dose response retest of primary hits, 48 h incubation

IC50 [1] [µM] | Structure (SMILES) | %Inh HepG2 @10uM (HepG2 human cells) [%] | inhibition at 2 µM [1] [%] | %Inhibition Female @2uM ([2]; 48 h incubation) [%] | %Inhibition Male @2uM ([3]; 48 h incubation) [%] | also measured
3.31 | CCc1c(-c2ccccc2)nc2c(c(C)c(C)n2CCN(C)C)c1N [DDD01026714] | 15.22 | 48.1 |  |  | 
4.49 | Cc1c(-c2ccccc2)nc2c(c(C)c(C)n2CCN(C)C)c1N [DDD01026725] | 13.65 | 46.1 |  |  | 
2.18 | CC(C)n1ncc2c1NC(=O)CC21C(=O)Nc2c(Cl)ccc(Cl)c21 (centres unmarked) [DDD01027128] | -12.20 | 96.3 |  |  | 
 | O=C(CN1CC(c2nc(C3CC3)no2)C1)N1CCOCC1.O=C(O)C(=O)O [DDD01027902] | -17.5 |  |  |  | IC50 [2, 4]: 5.81 µM; inhibition at 2 µM ([2]; 48 h incubation): < 30%; IC50 [3, 4]: 1.18 µM; inhibition at 2 µM ([3]; 48 h incubation): 52.5%
3.54 | CC(C)Nc1nc2c(c(NC3CC3)n1)CCN(C1CCOCC1)CC2 [DDD01029612] | -3.76 | 33.7 |  |  | 
2.5 | CC(C)Nc1nc2c(c(NC3CC3)n1)CN(C(=O)Cc1ccsc1)CC2 [DDD01029980] | 3.26 | 33.2 |  |  | 
1.15 | CC(C)Nc1nc2c(c(NC3CC3)n1)CN(C(=O)c1ccsc1)CC2 [DDD01030030] | -17.20 | 58.7 |  |  | 
 | COc1ccc(CN2CCc3c(CNC(=O)CC#N)nn(C)c3C2)cc1.O=C(O)C(F)(F)F.O=C(O)C(F)(F)F [DDD01030619] | -1.4 |  |  |  | IC50 [2, 4]: > 10 µM; inhibition at 2 µM ([2]; 48 h incubation): < 30%; IC50 [3, 4]: 1.34 µM; inhibition at 2 µM ([3]; 48 h incubation): 59.5%
3.86 | c1cncc(-c2ccc3c(c2)CCC32CCNCC2)c1 [DDD01031368] | 17.78 | 38.8 |  |  | 
2.17 | Cc1nnc(N2CC[C@@H](OCC3CC3)[C@@H](Cc3ccccc3)C2)s1.O=C(O)C(F)(F)F [DDD01032950] | -7.86 | 45.4 |  |  | 
2.59 | CN(Cc1ccco1)C[C@H]1OC[C@@H]2CCN(Cc3ccccn3)C[C@@H]21.O=C(O)C(F)(F)F.O=C(O)C(F)(F)F.O=C(O)C(F)(F)F [DDD01033585] | -8.48 | 41 |  |  | 
1.48 | COc1ccc(N2CCCC3(C2)CN(c2nncs2)CCO3)cc1 (centres unmarked) [DDD01034473] | 1.09 | 87.8 |  |  | 
5.98 | Cc1[nH]/c(=N\C(=O)c2csc(NC3CCCC3)n2)sc1C [DDD01035522] | 31.16 | 32.6 |  |  | 
3.12 | I.c1ccc(Sc2ccc3c(c2)OCO3)c(CNC2=NCCN2)c1 [DDD01035544] | -0.79 | 30.4 |  |  | 
9.35 | CC(C)c1nnc2ccc(N3CCC(C(=O)Nc4nccs4)CC3)nn12 [DDD01036018] | 10.73 | 30.4 |  |  | 
3.65 | O=C(Nc1cnn(COc2ccc(F)cc2Cl)c1)C1CC1 [DDD01037427] | 9.89 | 46.4 |  |  | 
1.88 | CCN(CC)c1nc(Nc2cccc(C(C)O)c2)nc2ccccc12 (centres unmarked) [DDD01037966] | 65.01 | 44.9 |  |  | 
1.67 | CC(O)c1cccc(Nc2nc(NCCO)c3ccccc3n2)c1 (centres unmarked) [DDD01037968] | -5.65 | 41.9 |  |  | 
2.29 | Oc1ccc(Cl)cc1CNCc1ccccc1Cl [DDD01038243] | -8.63 | 49.1 |  |  | 
1.69 | Oc1ccc(Cl)cc1CNCc1cccc(C(F)(F)F)c1 [DDD01038245] | -12.90 | 52.7 |  |  | 
1.52 | Cc1ccccc1CNCc1cc(Cl)ccc1O [DDD01038246] | -11.50 | 53.9 |  |  | 
 | COc1ccc(CNC(Cc2ccsc2)c2ccc(C)cn2)c(OC)c1 (centres unmarked) [DDD01058868] | 85.33 |  |  |  | IC50 [2, 4]: 5.3 µM; inhibition at 2 µM ([2]; 48 h incubation): 30.8%; IC50 [3, 4]: > 10 µM; inhibition at 2 µM ([3]; 48 h incubation): < 30%
 | Cc1cccnc1CN1CC[C@H](Oc2cccc(F)c2)[C@@](C)(O)C1 [DDD01060871] | -0.828 |  |  |  | IC50 [2, 4]: 6.07 µM; inhibition at 2 µM ([2]; 48 h incubation): 32.8%; IC50 [3, 4]: > 10 µM; inhibition at 2 µM ([3]; 48 h incubation): < 30%
 | CC(NCC1CCN(CCO)CC1)c1ccc(C(F)(F)F)cc1 (centres unmarked) [DDD01073719] | 14.02 |  |  |  | IC50 [2, 4]: > 10 µM; inhibition at 2 µM ([2]; 48 h incubation): < 30%; IC50 [3, 4]: 7.83 µM; inhibition at 2 µM ([3]; 48 h incubation): 34.8%
 | O=C(C1CC2(CCNCC2)CN1)N1CCN(c2cccc(Cl)c2Cl)CC1 (centres unmarked) [DDD01243908] | -1.58 |  |  |  | IC50 [2, 4]: 4.79 µM; inhibition at 2 µM ([2]; 48 h incubation): < 30%; IC50 [3, 4]: 4.28 µM; inhibition at 2 µM ([3]; 48 h incubation): 65.7%
 | c1cn(Cc2nnc(C3CCN(c4nccs4)CC3)n2C2CC2)cn1 [DDD01257895] |  |  | 34.43 | <30 | 

IC50 [1] [µM] | Structure (SMILES) | %Inh HepG2 @10uM (HepG2 human cells) [%] | inhibition at 2 µM [1] [%] | %Inhibition Female @2uM ([2]; 48 h incubation) [%] | %Inhibition Male @2uM ([3]; 48 h incubation) [%] | also measured
 | Cc1nn(C)cc1C(=O)N1C[C@@H]2CC[C@H]1CN(S(=O)(=O)N(C)C)C2 [DDD01257957] |  |  | 39.59 | <30 | 
 | Cc1cc(C)nc(N2Cc3cnn(Cc4ccc(F)cc4)c3C2)n1 [DDD01258067] |  |  | 46.44 | <30 | 
 | COc1cc(C)c(CN2CCC3(CC2)C(C(=O)O)CC(=O)N3C)cc1C (centres unmarked) [DDD01258170] |  |  | 46.51 | <30 | 
 | COc1cccc(S(=O)(=O)NC(=O)CC2CCCO2)c1 (centres unmarked) [DDD01295262] |  |  | 46.83 | <30 | 
 | Cc1nn(C)c(C)c1CCC(=O)N1CCCC(n2cccn2)C1 (centres unmarked) [DDD01296064] |  |  | <30 | 47.51 | 
 | Cc1cn2c(n1)CCC(NC(=O)Cn1cncn1)C2 (centres unmarked) [DDD01296301] |  |  | 57.78 | <30 | 
 | NC(=O)COc1ccc(C(=O)N2CCCC(n3ccnc3)C2)cc1 (centres unmarked) [DDD01296946] |  |  | 40.74 | <30 | 
 | Cc1cnn(CC2CCCN2Cc2nnc(C(C)C)o2)c1 (centres unmarked) [DDD01296988] |  |  | 33.35 | 60.45 | 
 | CN(Cc1nnc(C2CC2)n1C)C1CCN(Cc2nccn2C)C1 (centres unmarked) [DDD01296990] |  |  | <30 | 57.47 | 
 | CCS(=O)(=O)N1CCC(NC(=O)c2cc(C)ccc2O)CC1 [DDD01297269] |  |  | 56.83 | <30 | 
 | CC(C)CCc1nc(CNCC2CCCN2c2cccnn2)cs1 (centres unmarked) [DDD01297850] |  |  | 39.30 | <30 | 
 | CCc1nnc2n1CCN(C(=O)c1nc(-c3ccco3)sc1C)C2 [DDD01298399] |  |  | <30 | 30.87 | 
 | CN1CCOC(CNCc2coc(-c3ccccc3Cl)n2)C1 (centres unmarked) [DDD01298713] |  |  | <30 | 34.66 | 
 | O=C(c1ccc(-n2ccnc2)cc1)N1CCCC(n2ccnc2)C1 (centres unmarked) [DDD01298772] |  |  | 36.32 | <30 | 
 | Cc1cc(NC(=O)CN2CCc3cnc(C(C)C)nc3C2)on1 [DDD01298964] |  |  | 41.23 | <30 | 
 | Cc1cc(C)cc(OCCN2CCn3c(C)nnc3C2)c1 [DDD01299569] |  |  | 31.60 | <30 | 
 | CCN1CCN(Cc2csc(C(C)C)n2)CC1 [DDD01301366] |  |  | <30 | 30.44 | 
 | CC(C)COC(C)C(=O)NCc1ccc(-n2cncn2)nc1 (centres unmarked) [DDD01301486] |  |  | 33.08 | <30 | 
 | COc1ccc(-c2nc(CNCCn3cccn3)cs2)cc1 [DDD01301541] |  |  | 31.18 | <30 | 
 | CC(CC(=O)NS(=O)(=O)c1ccc2c(c1)OCCO2)c1ccc(F)cc1 (centres unmarked) [DDD01301601] |  |  | 38.27 | <30 | 
 | c1cnc(-c2nc(CN3CCn4c(nnc4C4CC4)C3)cs2)nc1 [DDD01301615] |  |  | 32.48 | <30 | 
 | Cc1nc(C)n(CC2CCCN(CCOc3cccc(C#N)c3)C2)n1 (centres unmarked) [DDD01302568] |  |  | <30 | 85.34 | 
 | CCC(NC(=O)c1ccco1)c1ccccc1OCC(=O)N1CCCC1 (centres unmarked) [DDD01302666] |  |  | <30 | 33.09 | 
 | CC(C)CCN(C)C(=O)c1nc(S(C)(=O)=O)n2ccccc12 [DDD01302801] |  |  | <30 | 31.11 | 
 | COc1ccc(NC(=O)c2ccc(-n3ncc(C#N)c3N)cc2)cn1 [DDD01303472] | 3.50 |  |  |  | 
 | O=C(NCC1(O)CCOc2ccccc21)c1ccc(Br)s1 (centres unmarked) [OJF-034] |  |  |  |  | IC50 ([2]; SAR, Fig. 7): > 25 µM; IC50 ([3]; SAR, Fig. 6 and Fig. 7): > 25 µM

Structure (SMILES) | IC50 [1] [µM] | %Inh HepG2 @10uM (HepG2 human cells) [%] | inhibition at 2 µM [1] [%] | %Inhibition Female @2uM ([2]; 48 h incubation) [%] | %Inhibition Male @2uM ([3]; 48 h incubation) [%] | also measured
COc1cc(CNCC(O)c2ccc(F)c(F)c2)cc2c1OCO2 (centres unmarked) [DDD00408586] | 3 | 29.87 | 56.7 |  |  | 
CCCc1nc2c(c(C)c(C)n2CCN(C)C)c(N)c1CC [DDD01026700] | 5.25 | 3.64 | 39.3 |  |  | 
COc1cccc(C2SCC(=O)Nc3ccsc32)c1OC (centres unmarked) [DDD01034924] | 5.19 | 1.70 | 33.1 |  |  | 
